Test results: US20220380314A1, “SUBSTITUTED, SATURATED AND UNSATURATED N-HETEROCYCLIC CARBOXAMIDES AND RELATED COMPOUNDS FOR THEIR USE IN THE TREATMENT OF MEDICAL DISORDERS” (Bial - R&D Investments, S.A., priority 2019, published 2022)
Counter-ions that a name gives are not always drawn.

What follows are molecules tested against T1, acid ceramidase (hACR) (Homo sapiens, UniProt Q13510) (assay: Acid ceramidase inhibition, biochemical fluorescent assay with cell lysates overexpressing acid ceramidase, substrate Rbm14-12). Settings: cell lysates overexpressing acid ceramidase; 1 hr preincubation at RT; pH 4.5; substrate Rbm14-12 6.3 μM; read-out: hACR IC50.
T1 construct: expressed in transfected cells; cell lysate used
T1 sequence (Q13510 143-395 limits assumed): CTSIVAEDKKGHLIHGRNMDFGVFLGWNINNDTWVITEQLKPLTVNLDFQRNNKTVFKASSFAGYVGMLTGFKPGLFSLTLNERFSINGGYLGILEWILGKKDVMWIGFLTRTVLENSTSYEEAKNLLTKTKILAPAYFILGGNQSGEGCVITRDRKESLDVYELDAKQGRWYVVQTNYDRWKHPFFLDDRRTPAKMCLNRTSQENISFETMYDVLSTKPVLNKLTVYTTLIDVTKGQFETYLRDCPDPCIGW
T1 sequence (Q13510 22-142 limits assumed): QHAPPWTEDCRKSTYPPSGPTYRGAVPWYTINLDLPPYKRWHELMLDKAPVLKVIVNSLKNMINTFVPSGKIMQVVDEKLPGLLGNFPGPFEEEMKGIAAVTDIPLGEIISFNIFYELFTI
Description: The ability of exemplary compounds to inhibit acid ceramidase was measured.
Cell lysates overexpressing acid ceramidase were used as the enzyme source for compound potency determination in a biochemical fluorescent assay. Briefly, compounds were preincubated with 10 µg protein of cell lysates in a dose-response manner for 1 hr at RT in the assay buffer containing 25 mM NaAC and 100 mM NaCl, pH 4.5. The reaction was initiated by the addition of substrate Rbm14-12 at a final concentration of 6.3 μM. The reaction was run at RT for 1 hr before it was stopped by the addition of the stopping buffer containing 20% methanol (v/v), 1 mg/ml NaIO4, 0.1 M glycine, pH 10.6. The samples were incubated with the stopping buffer at RT for 1 hr to allow the fluorescent product to be formed. Finally the plate was read with SpectraMax i3 plate reader (Molecular Devices) at ex360 nm and em446 nm. Data were collected and used to determine the IC50 values of compounds by curve fitting to the four-parameter inhibition equation.
The symbol “A” indicates inhibition of less than 0.2 μM; the symbol “B” indicates inhibition in the range of 0.2 μM up to 1 μM; and the symbol “C” indicates inhibition of greater than 1 μM.

SMILES	IC50 [nM]
CC1(C)CN(C(=O)OCc2ccccc2)CC(c2ccccc2)N1C(=O)NCCCCc1ccccc1 (stereo not drawn) [Example 164, Benzyl 3,3-dimethyl-5-phenyl-4-(4-phenylbutylcarbamoyl)piperazine-1-carboxylate]	> 1000
CC1(C)CC(=O)/C(=C/c2ccccc2)CN1C(=O)NCCCCc1ccccc1 [Example 122, (5E)-5-Benzylidene-2,2-dimethyl-4-oxo-N-(4-phenylbutyl)piperidine-1-carboxamide]	< 200
COc1ccc(C2COCC(C)(C)N2C(=O)NCC(C)C)cc1 (stereo not drawn) [Example 143, N-iso-Butyl-5-(4-methoxyphenyl)-3,3-dimethylmorpholine-4-carboxamide]	< 200
CC1(C)CC(N2CCCCC2)C(Cc2ccccc2)CN1C(=O)NCCCCc1ccccc1 (stereo not drawn) [Example 125, 5-Benzyl-2,2-dimethyl-N-(4-phenylbutyl)-4-(1-piperidyl)piperidine-1-carboxamide]	< 200
CCCCCNC(=O)N1CC(C)C(N2CCCCC2)CC1(C)C (stereo not drawn) [Example 124, 2,2,5-Trimethyl-N-pentyl-4-(1-piperidyl)piperidine-1-carboxamide]	< 200
CC1CC(N2CCCCC2)CCN1C(=O)NCCCCc1ccccc1 (mixture of isomers) [Example 94, 2-Methyl-N-(4-phenylbutyl)-4-(1-piperidyl)piperidine-1-carboxamide]	< 200
CC1(C)CN(C(=O)NCCCCc2ccccc2)C(C)(C)CC1=O [Example 120, 2,2,5,5-Tetramethyl-4-oxo-N-(4-phenylbutyl)piperidine-1-carboxamide]	> 1000
CC1(C)CN(C2CCCCC2)CCN1C(=O)NCCCCc1ccccc1 [Example 110, 4-Cyclohexyl-2,2-dimethyl-N-(4-phenylbutyl)piperazine-1-carboxamide]	< 200
CCCCCNC(=O)N1CCC(c2ccccc2)CC1(C)C (stereo not drawn) [Example 76, 2,2-Dimethyl-N-pentyl-4-phenylpiperidine-1-carboxamide]	> 1000
CCCCCNC(=O)N1C(c2ccc(F)cc2)COCC1(C)C (single isomer, unassigned) [Example 138, (5S) or (5R)-5-(4-Fluorophenyl)-3,3-dimethyl-N-pentylmorpholine-4-carboxamide]	< 200
COc1ccc(C2COCC(C)(C)N2C(=O)NCCC(C)C)cc1 (stereo not drawn) [Example 147, N-iso-Pentyl-5-(4-methoxyphenyl)-3,3-dimethylmorpholine-4-carboxamide]	< 200
COc1ccc(C2COCC(C)(C)N2C(=O)NCC(F)(F)F)cc1 (stereo not drawn) [Example 152, 5-(4-Methoxyphenyl)-3,3-dimethyl-N-(2,2,2-trifluoroethyl)morpholine-4-carboxamide]	> 1000
CC1(C)CC(N2CCCCC2)/C(=C/c2ccccc2)CN1C(=O)NCCc1ccccc1 (stereo not drawn) [Example 129, (5E)-5-Benzylidene-2,2-dimethyl-N-(2-phenylethyl)-4-(1-piperidyl)piperidine-1-carboxamide]	200 to 1000
CCCCCNC(=O)N1[C@@H]2CC[C@H]1C[C@H](N1CCCCC1)C2 [Example 102, Exo-N-Pentyl-3-(1-piperidyl)-8-azabicyclo[3.2.1]octane-8-carboxamide]	> 1000
CC1(C)CC(N2CCCCC2)C(Cc2ccccc2)CN1C(=O)NCCc1ccccc1 (stereo not drawn) [Example 126, 5-Benzyl-2,2-dimethyl-N-(2-phenylethyl)-4-(1-piperidyl)piperidine-1-carboxamide]	< 200
CC1CCC(N2CCCCC2)CN1C(=O)NCCCCc1ccccc1 (stereo not drawn) [Example 100, 2-Methyl-N-(4-phenylbutyl)-5-(1-piperidyl)piperidine-1-carboxamide]	200 to 1000
CCCCCNC(=O)N1CCN(c2ccccc2)C(=O)C1(C)C [Example 107, 2,2-Dimethyl-3-oxo-N-pentyl-4-phenylpiperazine-1-carboxamide]	200 to 1000
CCCCCNC(=O)N1CCN(C2CC2)CC1(C)C [Example 112, 4-Cyclopropyl-2,2-dimethyl-N-pentylpiperazine-1-carboxamide]	< 200
CC1(C)CN(C2CC2)CCN1C(=O)NCCCCc1ccccc1 [Example 111, 4-Cyclopropyl-2,2-dimethyl-N-(4-phenylbutyl)piperazine-1-carboxamide]	< 200
CCCCCCCNC(=O)N1C(c2ccccc2)COCC1(C)C (stereo not drawn) [Example 134, N-Heptyl-3,3-dimethyl-5-phenylmorpholine-4-carboxamide]	< 200

SMILES	IC50 [nM]
COc1ccc(C2COCC(C)(C)N2C(=O)NCCCCC2CC2)cc1 (stereo not drawn) [Example 149, N-(4-Cyclopropylbutyl)-5-(4-methoxyphenyl)-3,3-dimethylmorpholine-4-carboxamide]	< 200
CC1(C)CC(N2CCC(c3ccccc3)CC2)CCN1C(=O)NCCCCc1ccccc1 (stereo not drawn) [Example 93, 2,2-Dimethyl-N-(4-phenylbutyl)-4-(4-phenyl-1-piperidyl)piperidine-1-carboxamide]	< 200
CC(C)[C@@H]1CN(C2CC2)CCN1C(=O)NCCCCc1ccccc1 [Example 116, (2R)-4-Cyclopropyl-2-isopropyl-N-(4-phenylbutyl)piperazine-1-carboxamide]	200 to 1000
CCCCCNC(=O)N1[C@@H]2CC[C@H]1CC(c1ccccc1)C2 (mixture of isomers) [Example 82, endo- and exo-N-Pentyl-3-phenyl-8-azabicyclo[3.2.1]octane-8-carboxamide]	> 1000
CCCCCNC(=O)N1C(c2ccc(F)c(OC)c2)COCC1(C)C (stereo not drawn) [Example 163, 5-(4-Fluoro-3-methoxyphenyl)-3,3-dimethyl-N-pentylmorpholine-4-carboxamide]	< 200
CCCCCNC(=O)N1C(c2ccc(F)c(F)c2)COCC1(C)C (stereo not drawn) [Example 162, 5-(3,4-Difluorophenyl)-3,3-dimethyl-N-pentylmorpholine-4-carboxamide]	< 200
CCCCCNC(=O)N1[C@@H](C)COC[C@H]1c1ccc(F)cc1 [Example 141, (3R,5S)-3-(4-Fluorophenyl)-5-methyl-N-pentylmorpholine-4-carboxamide]	200 to 1000
CC1(C)CC(c2ccccc2)CCN1C(=O)NC1CCOCC1 (stereo not drawn) [Example 78, 2,2-Dimethyl-4-phenyl-N-tetrahydropyran-4-yl-piperidine-1-carboxamide]	> 1000
CCCCCNC(=O)N1C[C@@H](C)N(C2CC2)C[C@@H]1C [Example 114, (2S,5R)-4-cyclopropyl-2,5-dimethyl-N-pentylpiperazine-1-carboxamide]	> 1000
CCCCCNC(=O)N1CC(Cc2ccccc2)C(N2CCCCC2)CC1(C)C (stereo not drawn) [Example 127, 5-Benzyl-2,2-dimethyl-N-pentyl-4-(1-piperidyl)piperidine-1-carboxamide]	< 200
COc1ccc(C2COCC(C)(C)N2C(=O)NCc2ccc(F)cc2)cc1 (stereo not drawn) [Example 151, N-[(4-Fluorophenyl)methyl]-5-(4-methoxyphenyl)-3,3-dimethylmorpholine-4-carboxamide]	< 200
COc1cc(N2CCN(C(=O)NCCCCc3ccccc3)C(C)(C)C2=O)ccc1F [Example 109, 4-(4-Fluoro-3-methoxy-phenyl)-2,2-dimethyl-3-oxo-N-(4-phenylbutyl)piperazine-1-carboxamide]	< 200
CC[C@H](C)NC(=O)N1C(c2ccc(OC)cc2)COCC1(C)C (mixture of isomers) [Example 155, (5R) AND (5S)-5-(4-Methoxyphenyl)-3,3-dimethyl-N-[(1S)-1-methylpropyl]morpholine-4-carboxamide]	< 200
CCCCCNC(=O)N1C(C)CC(N2CCCCC2)CC1C (stereo not drawn) [Example 98, 2,6-Dimethyl-N-pentyl-4-(1-piperidyl)piperidine-1-carboxamide hydrochloride]	< 200
CC1(C)CCCCN1C(=O)NCCCCc1ccccc1 [Example 90, 2,2-Dimethyl-N-(4-phenylbutyl)piperidine-1-carboxamide carboxamide]	> 1000
CC1(C)CC(=O)C(c2ccccc2)CN1C(=O)NCCCCc1ccccc1 (stereo not drawn) [Example 123, 2,2-Dimethyl-4-oxo5-phenyl-N-(4-phenylbutyl)piperidine-1-carboxamide]	> 1000
CCCCCNC(=O)N1C/C(=C\c2ccccc2)C(N2CCCCC2)CC1(C)C (stereo not drawn) [Example 130, (5E)-5-Benzylidene-2,2-dimethyl-N-pentyl-4-(1-piperidyl)piperidine-1-carboxamide]	< 200
CC1(C)C(=O)N(c2ccccc2)CCN1C(=O)NCCOCc1ccccc1 [Example 108, N-(2-Benzyloxyethyl)-2,2-dimethyl-3-oxo-4-phenylpiperazine-1-carboxamide]	> 1000
CCCCCNC(=O)N1C(c2ccc(F)cc2)CN(C)CC1(C)C (stereo not drawn) [Example 167, 6-(4-Fluorophenyl)-2,2,4-trimethyl-N-pentylpiperazine-1-carboxamide hydrochloride]	< 200
